The target in one experiment is Mcl-1 protein (Homo sapiens, UniProt Q07820). Briefly: Inhibition of Mcl-1 by the fluorescence polarisation technique (Method 1 or Method 2). The following applies: fluorescence polarisation, Fluorescein labelled ligand; Method 1 (not underlined) or Method 2 (underlined); read-out: IC50 (μM) Mcl-1 FP. The class given is binding. In outline:
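Binding measured by FP, with Mcl-1 protein and fluorescein-labelled ligand mixed with compounds in an 11-point series at 5% final DMSO. Method 2 used 10 nM each of protein and ligand in phosphate buffer (20 mM Na2HPO4, 1 mM EDTA, 50 mM NaCl, pH 7.4); Method 1 used 5 nM protein, 1 nM ligand in HEPES buffer (10 mM HEPES, 150 mM NaCl, 0.05% Tween 20, pH 7.4).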

Experiment [1] deals with H929 multiple myeloma tumour line. Briefly: In vitro cytotoxicity, MTT assay, 48 hours. The class given is cell-based. Conditions: H929 cells, 48 hours exposure, cell viability. As for the experimental part: The cytotoxicity studies were carried out on the H929 multiple myeloma tumour line.
The cells are distributed onto microplates and exposed to the test compounds for 48 hours.

In experiment [2] the test system is cleaved form of PARP in AMO-1 tumour cells. Briefly: Quantification of the cleaved form of PARP in vivo (AMO-1 xenograft, MSD ELISA). Conditions: activation factor: cleaved PARP in treated mice / control mice, SCID mice, intraveinous or oral routes. Also noted: species or system mice (SCID strain). Here is the method:
The ability of the compounds of the invention to induce apoptosis, by measuring cleaved PARP levels, is evaluated in a xenograft model of AMO-1 multiple myeloma cells. 1·10^7 AMO-1 cells are grafted sub-cutaneously into immunosuppressed mice (SCID strain). 12 to 14 days after the graft, the animals are treated by intraveinous or oral routes with the various compounds. After treatment, the tumour masses are recovered and lysed, and the cleaved form of PARP is quantified in the tumour lysates.
The quantification is carried out using the “Meso Scale Discovery (MSD) ELISA platform” test, which specifically assays the cleaved form of PARP. It is expressed in the form of an activation factor corresponding to the ratio between the quantity of cleaved PARP in the treated mice divided by the quantity of cleaved PARP in the control mice.

Sequence of Mcl-1 protein (Q07820 whole entry): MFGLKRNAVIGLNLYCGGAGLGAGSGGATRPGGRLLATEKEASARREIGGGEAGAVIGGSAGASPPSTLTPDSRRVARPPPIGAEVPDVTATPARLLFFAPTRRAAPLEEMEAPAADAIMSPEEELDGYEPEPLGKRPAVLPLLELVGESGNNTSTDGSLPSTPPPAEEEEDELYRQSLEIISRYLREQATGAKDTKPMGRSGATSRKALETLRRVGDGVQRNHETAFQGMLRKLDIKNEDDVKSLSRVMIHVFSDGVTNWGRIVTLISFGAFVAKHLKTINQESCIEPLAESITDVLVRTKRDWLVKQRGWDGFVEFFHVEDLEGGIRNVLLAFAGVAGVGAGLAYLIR

As to `CC#Cc1sc2ncnc(N[C@H](Cc3ccccc3OCc3ccnc(-c4ccccc4OC)n3)C(=O)O)c2c1-c1ccc(OCCN(C)C)c(Cl)c1C` [Example 49, N-[(5Sa)-5-{3-chloro-4-[2-(dimethylamino)ethoxy]-2-methylphenyl}-6-(prop-1-yn-1-yl)thieno[2,3-d]pyrimidin-4-yl]-2-{[2-(2-methoxyphenyl)pyrimidin-4-yl]methoxy}-D-phenylalanine], the half-inhibitory concentration (IC50) (commonly the concentration at which inhibition is half-maximal) on Mcl-1 protein was 0.003 µM; in experiment [1], 4.12 nM. In addition, the PARP fold in experiment [2] is on record as 138.8.
`CCOc1nccc(COc2ccccc2CC(Nc2ncnc3sc(-c4ccc(F)o4)c(-c4ccc(OCCN5CCN(C)CC5)c(Cl)c4C)c23)C(=O)O)n1` [Example 22, N-[(5Sa)-5-{3-chloro-2-methyl-4-[2-(4-methylpiperazin-1-yl)ethoxy]phenyl}-6-(5-fluorofuran-2-yl)thieno[2,3-d]pyrimidin-4-yl]-2-[(2-ethoxypyrimidin-4-yl)methoxy]-D-phenylalanine]: the IC50 at Mcl-1 protein was 0.002 µM; in experiment [1] (Homo sapiens, NCI-H929), 8.59 nM. In addition, in experiment [2], the PARP fold amounted to 222.2.
The corresponding values for `CC#Cc1sc2ncnc(NC(Cc3ccccc3OCc3ccnc(OCC(F)(F)F)n3)C(=O)O)c2c1-c1ccc(OCCN2CCN(C)CC2)c(Cl)c1C` [Example 44, N-[(5Sa)-5-{3-chloro-2-methyl-4-[2-(4-methylpiperazin-1-yl)ethoxy]phenyl}-6-(prop-1-yn-1-yl)thieno[2,3-d]pyrimidin-4-yl]-2-{[2-(2,2,2-trifluoroethoxy)pyrimidin-4-yl]methoxy}-D-phenylalanine] are 0.007 µM, 3.44 nM and 85.8.
As for `CC#Cc1sc2ncnc(NC(Cc3ccccc3OCc3ccnc(-c4ccccc4OC)n3)C(=O)OCC)c2c1-c1ccc(OCCN2CCN(C)CC2)c(Cl)c1C` [Example 258, ethyl N-[(5Sa)-5-{3-chloro-2-methyl-4-[2-(4-methylpiperazin-1-yl)ethoxy]phenyl}-6-(prop-1-yn-1-yl)thieno[2,3-d]pyrimidin-4-yl]-2-{[2-(2-methoxyphenyl)pyrimidin-4-yl]methoxy}-D-phenylalaninate], the 50% inhibitory concentration (IC50) on Mcl-1 protein was 1.07 µM; in experiment [1] (Homo sapiens, NCI-H929), 428 nM. Moreover, the PARP fold in experiment [2] was 132.3.
Taken in the same sequence, the figures for `CCOC(=O)C(Cc1ccccc1OCc1ccnc(-c2ccccc2OC)n1)Nc1ncnc2sc(-c3ccc(F)cc3)c(-c3ccc(OCCN4CCN(C)CC4)c(Cl)c3C)c12` [Example 256, ethyl N-[(5Sa)-5-{3-chloro-2-methyl-4-[2-(4-methylpiperazin-1-yl)ethoxy]phenyl}-6-(4-fluorophenyl)thieno[2,3-d]pyrimidin-4-yl]-2-{[2-(2-methoxyphenyl)pyrimidin-4-yl]methoxy}-D-phenylalaninate] were 1.61 µM, above 600 nM and 99.5.
As for `CC#Cc1sc2ncnc(NC(Cc3ccccc3OCc3ccnc(-c4ccccc4OC)n3)C(=O)OCC)c2c1-c1ccc(OCCN(C)C)c(Cl)c1C` [Example 259, ethyl N-[(5Sa)-5-{3-chloro-4-[2-(dimethylamino)ethoxy]-2-methylphenyl}-6-(prop-1-yn-1-yl)thieno[2,3-d]pyrimidin-4-yl]-2-{[2-(2-methoxyphenyl)pyrimidin-4-yl]methoxy}-D-phenylalaninate], the IC50 at Mcl-1 protein is 1.35 µM; in experiment [1] (Homo sapiens, NCI-H929), above 600 nM. Also, in experiment [2], the PARP fold amounted to 134.4.
For `CC#Cc1sc2ncnc(NC(Cc3ccccc3OCc3ccnn3C(C)(C)C)C(=O)O)c2c1-c1ccc(OCCN2CCN(C)CC2)c(Cl)c1C` [Example 40, 2-[(1-tert-butyl-1H-pyrazol-5-yl)methoxy]-N-[(5Sa)-5-{3-chloro-2-methyl-4-[2-(4-methylpiperazin-1-yl)ethoxy]phenyl}-6-(prop-1-yn-1-yl)thieno[2,3-d]pyrimidin-4-yl]-D-phenylalanine], the 50% inhibitory concentration (IC50) was found to be 0.006 µM on Mcl-1 protein and 32.8 nM in experiment [1] (Homo sapiens, NCI-H929). In experiment [2], this molecule showed a PARP fold of 114.3.
The corresponding values for `COCCOc1ccccc1-c1nccc(COc2ccccc2CC(Nc2ncnc3sc(-c4ccc(F)cc4)c(-c4ccc(OCCN(C)C)c(Cl)c4C)c23)C(=O)O)n1` [Example 51, N-[(5Sa)-5-{3-chloro-4-[2-(dimethylamino)ethoxy]-2-methylphenyl}-6-(4-fluorophenyl)thieno[2,3-d]pyrimidin-4-yl]-2-({2-[2-(2-methoxyethoxy)phenyl]pyrimidin-4-yl}methoxy)-D-phenylalanine] are 0.005 µM, 23.3 nM and 52.2.
Take `CC#Cc1sc2ncnc(NC(Cc3ccccc3OCc3ccnc(N4CCOCC4)n3)C(=O)O)c2c1-c1ccc(OCCN2CCN(C)CC2)c(Cl)c1C` [Example 43, N-[(5Sa)-5-{3-chloro-2-methyl-4-[2-(4-methylpiperazin-1-yl)ethoxy]phenyl}-6-(prop-1-yn-1-yl)thieno[2,3-d]pyrimidin-4-yl]-2-{[2-(morpholin-4-yl)pyrimidin-4-yl]methoxy}-D-phenylalanine]: the half-maximal inhibitory concentration (IC50) came to 0.006 µM at Mcl-1 protein and 12.5 nM in experiment [1] (Homo sapiens, NCI-H929). In addition, the PARP fold in experiment [2] was determined as 114.6.

For the origin of these results see patent publication US10457687B2, “Aminoacid derivatives, a process for their preparation and pharmaceutical compositions containing them” (LES LABORATOIRES SERVIER, priority 2015, dated 2019).
